Measured values: US20240285552A1 (priority 2020, published 2024)
“Also recorded” adds a separate entry of the source. Structures can show the parent of a compound that is named as a salt. Where two headings read alike, the source gives them in different places.

Key:
ACE1 = target: T1, ACE1 (Homo sapiens, UniProt P12821); assay: ACE1 activity assay (colorimetric); assay type: biochemical; settings: for effect on exopeptidase activity of ACE: hydrochloride
T1 construct: purchased Sigma-Aldrich MAK422
T1 sequence (P12821 30-1306): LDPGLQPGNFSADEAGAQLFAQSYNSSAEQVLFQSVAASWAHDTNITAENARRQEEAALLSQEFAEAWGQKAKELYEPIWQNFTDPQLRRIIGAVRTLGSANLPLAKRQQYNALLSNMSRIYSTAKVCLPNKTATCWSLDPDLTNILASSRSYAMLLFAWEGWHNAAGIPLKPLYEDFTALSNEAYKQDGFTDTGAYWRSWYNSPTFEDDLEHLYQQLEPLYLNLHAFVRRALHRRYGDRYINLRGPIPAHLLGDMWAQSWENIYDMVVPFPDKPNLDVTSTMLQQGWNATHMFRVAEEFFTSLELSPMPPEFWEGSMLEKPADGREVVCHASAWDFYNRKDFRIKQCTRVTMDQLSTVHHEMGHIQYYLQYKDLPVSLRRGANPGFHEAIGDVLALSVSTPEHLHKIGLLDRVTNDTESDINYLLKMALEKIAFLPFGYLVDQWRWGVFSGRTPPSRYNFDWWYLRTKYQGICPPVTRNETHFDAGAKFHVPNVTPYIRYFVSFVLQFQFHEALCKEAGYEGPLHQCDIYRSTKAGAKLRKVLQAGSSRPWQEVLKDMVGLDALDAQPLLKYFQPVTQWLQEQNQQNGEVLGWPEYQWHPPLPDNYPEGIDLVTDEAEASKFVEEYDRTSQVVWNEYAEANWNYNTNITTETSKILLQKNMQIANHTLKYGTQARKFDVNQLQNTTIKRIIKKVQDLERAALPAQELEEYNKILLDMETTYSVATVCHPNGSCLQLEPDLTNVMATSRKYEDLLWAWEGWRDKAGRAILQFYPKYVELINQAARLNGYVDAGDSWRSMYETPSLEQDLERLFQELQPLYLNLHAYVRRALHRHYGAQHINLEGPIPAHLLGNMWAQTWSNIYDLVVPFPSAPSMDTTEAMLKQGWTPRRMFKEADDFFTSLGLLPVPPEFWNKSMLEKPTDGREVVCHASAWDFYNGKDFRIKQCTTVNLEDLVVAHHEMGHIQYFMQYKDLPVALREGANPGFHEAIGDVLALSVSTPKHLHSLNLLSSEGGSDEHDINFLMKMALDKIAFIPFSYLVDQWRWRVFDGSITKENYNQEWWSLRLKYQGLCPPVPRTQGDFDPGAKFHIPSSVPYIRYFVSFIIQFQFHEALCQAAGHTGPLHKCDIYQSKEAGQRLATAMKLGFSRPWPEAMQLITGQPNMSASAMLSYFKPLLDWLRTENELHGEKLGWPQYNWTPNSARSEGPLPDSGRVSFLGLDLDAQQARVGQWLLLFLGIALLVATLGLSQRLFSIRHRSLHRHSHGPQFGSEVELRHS
Procedure: ACE1 Activity Assay. ACE1 Inhibitor Screening Kit (Cat #MAK422) was purchased from Sigma-Aldrich (St. Louis, MO) and adapted to determine the effect of BHH and AMB on the enzymatic activity of ACE (Aldrich, 2022). The in vitro colorimetric assay was performed in a transparent flat-bottom 96-well plate. 50 mm and 10 mm solutions of Captropil, a known ACE1 inhibitor were used as a positive inhibitor control. Stock solutions of the compounds were prepared in 100% Dimethyl sulfoxide (DMSO) and further serially diluted in DMSO as follows: 500, 100, 50,10,5,1 and 0.5 μm for AMB and the positive control Captropil. All experiments were performed in quadruplicates. Each plate contained positive controls (1% DMSO) and blank controls with no ACE1 enzyme. Specifically, 2.5 μl of serially diluted compounds were pre-incubated with 2 μl of ACE1 protein diluted in 38 μl of 1× assay diluent buffer for about 15 mins, at room temperature (22° C.). 157.5 μl of 1×ACE1 assay buffer (197.5 μl for −ve control) was added into the 96 well plates. The solution was mixed well and incubated at 37° C. for 15-20 minutes, protected from light. After that, 40 μl of the substrate was added to each well and mixed well. The absorbance was measured immediately at 345 nm (A345) in kinetic mode for 60 minutes.

in vitro = settings: human, Cytotoxicity CC50, A549 cells, 72 hours
[1] = system: SARS CoV-2 nanoluciferase reporter virus; assay: microbe, parasite or virus in culture; assay type: cell-based; settings: for IC50: read-out: IC50, viral replication, Nanoluciferase Reporter Virus Assay

| SMILES | remaining activity at 500 µM (ACE1; 500 μM, read-out: ACE activity remaining) [%] | effect on exopeptidase activity of ACE (ACE1) | CC50 at 72 h (in vitro) [µM] | Concentration at Maximum % Inhibition ([1]; A549-ACE2, NLRV) [µM] | Maximum Inhibition ([1]; A549-ACE2, NLRV) [%] | IC50 ([1]; Severe acute respiratory syndrome coronavirus 2, A549, 72 h) [µM] | IC50 ([1]; hydrochloride) [µM] | Conc. at Max. % Viability (A549 cells) [µM] | Conc. at Min. % Viability (A549 cells) [µM] | Max. Viability (A549 cells) [%] | Min. Viability (A549 cells) [%] | CC50 (A549 cells; read-out: Cytotoxicity CC50, 72 hours, hydrochloride) [µM] |
| --- | --- | --- | --- | --- | --- | --- | --- | --- | --- | --- | --- | --- |
| Nc1c(Br)cc(Br)cc1CN[C@H]1CC[C@H](O)CC1 [AMB, 4-[(2-amino-3,5-dibromophenyl)methylamino]cyclohexan-1-ol; hydrochloride] | 100 | did not inhibit the activity of ACE | 137 | 300 | 99.73 | 47 | 47.3 | 2.34 | 300 | 100 | 0.14 | 137 |
| CN(Cc1cc(Br)cc(Br)c1N)C1CCCCC1 [BHH, Bromhexine hydrochloride] |  | inhibited; also recorded: showed activity against ACE1 |  |  |  |  |  |  |  |  |  |  |
